Read-outs that look alike come from different tables or passages of the source.
Legend:
[1] = system: Ba/F3-EGFR-WT; experiment: Ba/F3 cell survival assay, WT EGFR; assay type: cell-based
Experimental: (§1) 293T cells from ATCC were transfected with pBABEpuro expression constructs for WT EGFR or EGFR-insSVD and pCL-Eco packaging vector using Fugene-6 transfection reagent from Promega. Plates were incubated at 37° C. for 48 h. Retrovirus was harvested by filtering the media supernatant through a 0.45 μm filter.
(§2) Ba/F3 cells purchased from DSMZ were grown in RPMI+10% FBS+10 ng/mL IL-3 and infected with filtered retroviral supernatant at a 1:2 dilution. Polybrene was added to a concentration of 8 μg/mL, plates were spun for 90 min, and incubated overnight at 37° C. 2 μg/mL puromycin was added to the infected cells 24 h after infection and cells were continually grown in the presence of puromycin and 10 ng/mL IL-3. Following stably expressing Ba/F3 cell lines were generated: Ba/F3-EGFR-WT, Ba/F3-EGFR-insSVD, (Ba/F3-vector-control).
The cells ectopically expressing WT EGFR or EGFR-insSVD were plated with 10 ng/mL Millipore Culture grade EGF. The cells ectopically expressing pBABEpuro empty vector were plated with 10 ng/mL IL-3.
100 nL of compound was added to each well using a 100 nL pin head, and plates were incubated at 37° C. for 48 h.
(§3) Cell viability was measured by adding 20 μL of Cell Titer-Glo Luminescent Cell Viability Reagent diluted 1:3 in PBS. Plates were sealed with Perkin Elmer Top-Seal, inverted several times to mix, and immediately centrifuged at 1000 rpm for 2 min.

[2] = system: Ba/F3-EGFR-insSVD; experiment: Ba/F3 cell survival assay, EGFR-insSVD; assay type: cell-based
Experimental: as §1, §2
For cell survival assays, Ba/F3 cells were grown to a density of 1-2 million cells per mL, spun down and resuspended in media without IL-3, and replated at a concentration 200,000-500,000 cells per mL. The cells ectopically expressing WT EGFR or EGFR-insSVD were plated with 10 ng/mL Millipore Culture grade EGF. The cells ectopically expressing pBABEpuro empty vector were plated with 10 ng/mL IL-3.
2 days later, cells were plated in 50 μL in a 384 well plate at a concentration of 4000 cells per well for cells assayed in the absence of IL-3 and 2000 cells per well for cells assayed in the presence of IL-3. 100 nL of compound was added to each well using a 100 nL pin head, and plates were incubated at 37° C. for 48 h.
as §3, with “min. Plates were incubated in low light conditions for 8-10 min and luminescence was measured.” for “min.”

[3] = target: human Bub1 (Homo sapiens (Human), UniProt O43683); experiment: Bub1 high ATP kinase assay (TR-FRET); assay type: biochemical
Chain of human Bub1 (O43683 704-1085): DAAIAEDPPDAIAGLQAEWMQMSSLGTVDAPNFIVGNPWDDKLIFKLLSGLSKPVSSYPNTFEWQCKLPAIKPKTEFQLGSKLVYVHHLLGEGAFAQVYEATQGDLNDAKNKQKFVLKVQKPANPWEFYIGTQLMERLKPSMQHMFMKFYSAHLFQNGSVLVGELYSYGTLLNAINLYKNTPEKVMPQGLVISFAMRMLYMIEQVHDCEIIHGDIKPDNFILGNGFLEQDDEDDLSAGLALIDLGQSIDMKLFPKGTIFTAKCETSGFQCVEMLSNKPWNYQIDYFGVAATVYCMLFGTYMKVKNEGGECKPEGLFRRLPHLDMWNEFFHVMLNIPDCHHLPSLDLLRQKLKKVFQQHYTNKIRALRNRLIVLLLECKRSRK
From the text: Bub1-inhibitory activity of compounds of the present invention at a high ATP concentration was quantified employing the Bub1 TR-FRET high ATP kinase assay as described in the following paragraphs.
N-terminally His6-tagged recombinant catalytic domain of human Bub1 (amino acids 704-1085), expressed in insect cells (Hi5) and purified by Ni-NTA affinity chromatography and subsequent size exclusion chromatography, was used as enzyme.

[4] = Mus musculus, BaF3, 48 h, read-out: BA/F3 (wild type) IC50, cell viability, Cell Titer-Glo, 48 h, with 10 ng/mL EGF, without IL-3
[5] = Mus musculus, BaF3, 48 h, read-out: BA/F3 (insSVD) IC50, cell viability, Cell Titer-Glo, 48 h, with 10 ng/mL EGF, without IL-3
[6] = read-out: Bub1 high ATP (2 mM) IC50, 2 mM ATP
[7] = read-out: BA/F3 (wild type) IC50, cell viability, Cell Titer-Glo, 48 h, with 10 ng/mL EGF, without IL-3
[8] = read-out: BA/F3 (insSVD) IC50, cell viability, Cell Titer-Glo, 48 h, with 10 ng/mL EGF, without IL-3
[9] = Bub1 high ATP (2 mM) IC50, 2 mM ATP

SMILES | IC50 [1, 4] [nM] | IC50 [2, 5] [nM] | IC50 [3, 6] [µM] | IC50 [1, 7] [nM] | IC50 [2, 8] [nM] | IC50 [3, 9] [µM]
COc1c(Cl)cccc1Nc1c(-c2ccncc2OCC2(C)CCO2)[nH]c2c1C(=O)NCC2 (racemic) [Example 46, 3-(3-chloro-2-methoxyanilino)-2-{3-[(2-methyloxetan-2-yl)methoxy]pyridin-4-yl}-1,5,6,7-tetrahydro-4H-pyrrolo[3,2-c]pyridin-4-one] | 966 | 67 | 10.2 |  |  | 
COc1c(Cl)cccc1Nc1c(-c2ccncc2OCC2OCC2(C)C)[nH]c2c1C(=O)NCC2 (racemic) [Example 49, 3-(3-chloro-2-methoxyanilino)-2-{3-[(3,3-dimethyloxetan-2-yl)methoxy]pyridin-4-yl}-1,5,6,7-tetrahydro-4H-pyrrolo[3,2-c]pyridin-4-one] | 426 | 12.5 | > 20 |  |  | 
COc1c(F)cccc1Nc1c(-c2ccncc2OCC2OCC2(C)C)[nH]c2c1C(=O)NCC2 (racemic) [Example 52, 2-{3-[(3,3-dimethyloxetan-2-yl)methoxy]pyridin-4-yl}-3-(3-fluoro-2-methoxyanilino)-1,5,6,7-tetrahydro-4H-pyrrolo[3,2-c]pyridin-4-one] | 535 | 38.1 | > 20 |  |  | 
Cc1cccc(Nc2c(-c3ccncc3OCC3OCC3(C)C)[nH]c3c2C(=O)NCC3)c1Cl (racemic) [Example 58, 3-(2-chloro-3-methylanilino)-2-{3-[(3,3-dimethyloxetan-2-yl)methoxy]pyridin-4-yl}-1,5,6,7-tetrahydro-4H-pyrrolo[3,2-c]pyridin-4-one] | 1430 | 106 | > 20 |  |  | 
COc1c(Cl)cc(F)cc1Nc1c(-c2ccncc2OCC2CCO2)[nH]c2c1C(=O)NCC2 (racemic) [Example 65, 3-(3-chloro-5-fluoro-2-methoxyanilino)-2-(3-{[oxetan-2-yl]methoxy}pyridin-4-yl)-1,5,6,7-tetrahydro-4H-pyrrolo[3,2-c]pyridin-4-one] | 911 | 89.8 | > 20 |  |  | 
CC1(COc2cnccc2-c2[nH]c3c(c2Nc2cccc(Cl)c2OC(F)F)C(=O)NCC3)CCO1 (racemic) [Example 74, 3-[3-chloro-2-(difluoromethoxy)anilino]-2-(3-{[2-methyloxetan-2-yl]methoxy}pyridin-4-yl)-1,5,6,7-tetrahydro-4H-pyrrolo[3,2-c]pyridin-4-one] | 1250 | 134 | > 20 |  |  | 
COc1c(Br)cccc1Nc1c(-c2ccncc2OCC2CCO2)[nH]c2c1C(=O)NCC2 (single isomer, unassigned) [Example 34, 3-(3-bromo-2-methoxyanilino)-2-{3-[(oxetan-2-yl)methoxy]pyridin-4-yl}-1,5,6,7-tetrahydro-4H-pyrrolo[3,2-c]pyridin-4-one] |  |  |  | 519 | 20.4 | > 20
COc1c(Br)cccc1Nc1c(-c2ccncc2OCC2CCO2)[nH]c2c1C(=O)NCC2 (single isomer, unassigned) [Example 35, 3-(3-bromo-2-methoxyanilino)-2-{3-[(oxetan-2-yl)methoxy]pyridin-4-yl}-1,5,6,7-tetrahydro-4H-pyrrolo[3,2-c]pyridin-4-one] |  |  |  | 1360 | 206 | 4.97
Cc1c(Cl)cc(F)cc1Nc1c(-c2ccncc2OCC2CCO2)[nH]c2c1C(=O)NCC2 (single isomer, unassigned) [Example 41, 3-(3-chloro-5-fluoro-2-methylanilino)-2-{3-[(oxetan-2-yl)methoxy]pyridin-4-yl}-1,5,6,7-tetrahydro-4H-pyrrolo[3,2-c]pyridin-4-one] |  |  |  | 1780 | 346 | 6.35
Cc1c(Cl)cc(F)cc1Nc1c(-c2ccncc2OCC2CCO2)[nH]c2c1C(=O)NCC2 (single isomer, unassigned) [Example 42, 3-(3-chloro-5-fluoro-2-methylanilino)-2-{3-[(oxetan-2-yl)methoxy]pyridin-4-yl}-1,5,6,7-tetrahydro-4H-pyrrolo[3,2-c]pyridin-4-one] |  |  |  | 553 | 72.5 | > 20

From patent US20240307362A1 (priority 2019, published 2024)
